Laboratory results published in patent publication US20120016009A1, “Optimized Methods For Delivery Of DSRNA Targeting The PCSK9 Gene” (priority 2008, published 2012).
In the oligonucleotide strings, read from the 5' end, every base follows the letter of its sugar. An asterisk marks phosphorothioate; unmarked linkages are phosphodiester. Other units and linkages are bracketed, terminal groups are in braces. A string of capitals states the bases alone. d = 2'-deoxy (DNA); m = 2'-O-methyl; r = 2'-OH (RNA)

Test system: PCSK9 mRNA
Test: PCSK9 siRNA screening in HepG2 cells (lipofectamine 2000 transfection, PCSK9 mRNA by Quantigene, normalized to GAP-DH)
Type: cell-based, human
Conditions: for Mean percent remaining mRNA transcript at siRNA concentration/in cell type 30 nM/HepG2: 30 nM siRNA; for Mean percent remaining mRNA transcript at siRNA concentration/in cell type 3 nM/HepG2: 3 nM siRNA
In short: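 PCSK9 silencing was assessed in HepG2 cells by lipofectamine 2000 siRNA transfection in 96-well plates. Twenty-four hours later, lysates were analyzed with the Quantigene Explore Kit, with PCSK9 signal normalized to GAP-DH. Eight datapoints were collected per siRNA, and remaining transcript was expressed as a percentage of cells treated with an unrelated control siRNA duplex.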

Substance: AD-9669: PCSK9 siRNA (sense mCrGmCrGmUrGmCmUmCrArAmCmUrGmCmCrArArGdT*dT; antisense rCrUrUrGrGmCrArGrUrUrGrArGmCrArCrGrCrGdT*dT)
- Mean percent remaining mRNA transcript at siRNA concentration/in cell type 30 nM/HepG2: 97%

Substance: AD-9670: PCSK9 siRNA (sense mUrGrArGrGrAmCmCrArGmCrGrGrGmUrAmCmUrGdT*dT; antisense mCrArGmUrArCrCrCrGrCrUrGrGrUrCrCrUmCrAdT*dT)
- Mean percent remaining mRNA transcript at siRNA concentration/in cell type 30 nM/HepG2: 67%

Substance: AD-9671: PCSK9 siRNA (sense rArGmUmCrArArGrGrArGmCrAmUrGrGrArAmUmCdT*dT; antisense rGrArUrUrCmCrArUrGrCrUrCrCrUrUrGrArCrUdT*dT)
- IC50: 2.5 nM
- Mean percent remaining mRNA transcript at siRNA concentration/in cell type 3 nM/HepG2: 33%
- Mean percent remaining mRNA transcript at siRNA concentration/in cell type 30 nM/HepG2: 15%

Substance: AD-9672: PCSK9 siRNA (sense mUrArGmCmCmUmUrGmCrGmUmUmCmCrGrArGrGrAdT*dT; antisense rUrCrCrUrCrGrGrArArCrGmCrArArGrGrCmUrAdT*dT)
- Mean percent remaining mRNA transcript at siRNA concentration/in cell type 30 nM/HepG2: 57%

Substance: AD-9673: PCSK9 siRNA (sense mCmUmCrGmCrArGmUmCrArGrArGmCrGmCrAmCmUdT*dT; antisense rArGrUrGrCrGrCrUrCrUrGrArCrUrGrCrGrArGdT*dT)
- Mean percent remaining mRNA transcript at siRNA concentration/in cell type 3 nM/HepG2: 57%
- Mean percent remaining mRNA transcript at siRNA concentration/in cell type 30 nM/HepG2: 56%

Substance: AD-9674: PCSK9 siRNA (sense rGmCrArGmUmCrArGrArGmCrGmCrAmCmUrGmCmCdT*dT; antisense rGrGmCrArGrUrGrCrGrCrUrCrUrGrArCrUrGrCdT*dT)
- Mean percent remaining mRNA transcript at siRNA concentration/in cell type 3 nM/HepG2: 57%
- Mean percent remaining mRNA transcript at siRNA concentration/in cell type 30 nM/HepG2: 36%

Substance: AD-9675: PCSK9 siRNA (sense rGrGrGmCmCmCrAmCrArAmCrGmCmUmUmUmUrGrGdT*dT; antisense rCmCrArArArArGrCrGrUrUrGrUrGrGrGrCrCrCdT*dT)
- Mean percent remaining mRNA transcript at siRNA concentration/in cell type 30 nM/HepG2: 78%

Substance: AD-9676: PCSK9 siRNA (sense rGrArGrGrGmUrGmUmCmUrAmCrGmCmCrAmUmUrGdT*dT; antisense mCrArArUrGrGrCrGmUrArGrAmCrArCrCrCrUrCdT*dT)
- Mean percent remaining mRNA transcript at siRNA concentration/in cell type 30 nM/HepG2: 100%

Substance: AD-9677: PCSK9 siRNA (sense UGGCGGGUGGGUACAGCCGTT; antisense CGGCUGUACCCACCCGCCATT; chemistry not given here)
- Mean percent remaining mRNA transcript at siRNA concentration/in cell type 30 nM/HepG2: 62%

Substance: AD-9678: PCSK9 siRNA (sense rArGrGrArGmCrAmUrGrGrArAmUmCmCmCrGrGmCdT*dT; antisense rGrCrCrGrGrGrArUrUrCmCrArUrGrCrUrCrCrUdT*dT)
- Mean percent remaining mRNA transcript at siRNA concentration/in cell type 30 nM/HepG2: 76%

Substance: AD-9681: PCSK9 siRNA (sense rGmUmCrArGrGrArGmCmCrGrGrGrAmCrGmUmCrAdT*dT; antisense rUrGrArCrGrUrCrCrCrGrGrCrUrCrCrUrGrArCdT*dT)
- Mean percent remaining mRNA transcript at siRNA concentration/in cell type 30 nM/HepG2: 55%

Substance: AD-9682: PCSK9 siRNA (sense uGGuGGAGGuGuAucuccuTsT; antisense AGGAGAuAcACCUCcACcATsT; as printed in the source, key not given here)
- Mean percent remaining mRNA transcript at siRNA concentration/in cell type 30 nM/HepG2: 38%

Substance: AD-9683: PCSK9 siRNA (sense mCmCrAmCmCrGrGrGrArArAmUmCrGrArGrGrGmCdT*dT; antisense rGrCrCrCrUrCrGrArUrUrUrCrCrCrGrGrUrGrGdT*dT)
- Mean percent remaining mRNA transcript at siRNA concentration/in cell type 30 nM/HepG2: 48%

Substance: AD-9684: PCSK9 siRNA (sense mUrAmUmCmUmUmUmUrGrGrGmUmCmUrGmUmCmCmUdT*dT; antisense rArGrGrAmCrArGrArCrCmCrArArArArGrAmUrAdT*dT)
- Mean percent remaining mRNA transcript at siRNA concentration/in cell type 30 nM/HepG2: 63%

Substance: AD-9685: PCSK9 siRNA (sense rGmUrGrAmCmCrAmCmCrGrGrGrArArAmUmCrGrAdT*dT; antisense rUrCrGrArUrUrUrCrCrCrGrGrUrGrGrUmCrArCdT*dT)
- Mean percent remaining mRNA transcript at siRNA concentration/in cell type 30 nM/HepG2: 77%

Substance: AD-9686: PCSK9 siRNA (sense rGrArGmUmUmUrAmUmUmCrGrGrArArArArGmCmCdT*dT; antisense rGrGrCrUrUrUrUrCrCrGrArAmUrArArArCrUrCdT*dT)
- Mean percent remaining mRNA transcript at siRNA concentration/in cell type 30 nM/HepG2: 111%

Substance: AD-9687: PCSK9 siRNA (sense rGrAmCrAmCmCrArGmCrAmUrAmCrArGrArGmUrGdT*dT; antisense mCrArCrUrCrUrGmUrArUrGrCrUrGrGrUrGrUrCdT*dT)
- Mean percent remaining mRNA transcript at siRNA concentration/in cell type 30 nM/HepG2: 84%

Substance: AD-9688: PCSK9 siRNA (sense mUmCmUmCmCmUrArGrAmCrAmCmCrArGmCrAmUrAdT*dT; antisense mUrArUrGrCrUrGrGrUrGrUrCmUrArGrGrArGrAdT*dT)
- IC50: 4.2 nM
- Mean percent remaining mRNA transcript at siRNA concentration/in cell type 3 nM/HepG2: 34%
- Mean percent remaining mRNA transcript at siRNA concentration/in cell type 30 nM/HepG2: 26%

Substance: AD-9689: PCSK9 siRNA (sense mCrGmCmUrGmCmCrGrGmCrArAmCmUmUmCmCrGrGdT*dT; antisense rCrCrGrGrArArGrUrUrGrCrCrGrGmCrArGrCrGdT*dT)
- Mean percent remaining mRNA transcript at siRNA concentration/in cell type 30 nM/HepG2: 81%

Substance: AD-9690: PCSK9 siRNA (sense mUmCrAmUmUrGrGmUrGmCmCmUmCmCrArGmCrGrAdT*dT; antisense rUrCrGrCrUrGrGrArGrGmCrArCmCrArArUrGrAdT*dT)
- Mean percent remaining mRNA transcript at siRNA concentration/in cell type 30 nM/HepG2: 92%

Substance: AD-9691: PCSK9 siRNA (sense mUrAmCmUmCmUrGmCmUmCmUrAmUrGmCmCrArGrGdT*dT; antisense rCrCrUrGrGmCrAmUrArGrArGmCrArGrArGmUrAdT*dT)
- Mean percent remaining mRNA transcript at siRNA concentration/in cell type 30 nM/HepG2: 49%

Substance: AD-9692: PCSK9 siRNA (sense mUrGmCmCrGrGrGmCmCmCrAmCrArAmCrGmCmUmUdT*dT; antisense rArArGrCrGrUrUrGrUrGrGrGrCrCrCrGrGmCrAdT*dT)
- Mean percent remaining mRNA transcript at siRNA concentration/in cell type 30 nM/HepG2: 78%

Substance: AD-9693: PCSK9 siRNA (sense mCrGmCmUrGmUrGmUrGrGrAmCmCmUmCmUmUmUrGdT*dT; antisense mCrArArArGrArGrGrUrCmCrAmCrAmCrArGrCrGdT*dT)
- Mean percent remaining mRNA transcript at siRNA concentration/in cell type 30 nM/HepG2: 50%

Substance: AD-9694: PCSK9 siRNA (sense rGmUmUrGrArGrGmCrArGrArGrAmCmUrGrAmUmCdT*dT; antisense rGrArUmCrArGrUrCrUrCrUrGrCrCrUmCrArArCdT*dT)
- Mean percent remaining mRNA transcript at siRNA concentration/in cell type 30 nM/HepG2: 52%

Substance: AD-9695: PCSK9 siRNA (sense rArGmCmUmCmCmUrGmCrAmCrArGmUmCmCmUmCmCdT*dT; antisense rGrGrArGrGrArCrUrGrUrGmCrArGrGrArGrCrUdT*dT)
- Mean percent remaining mRNA transcript at siRNA concentration/in cell type 30 nM/HepG2: 102%

Substance: AD-9696: PCSK9 siRNA (sense mCmUrGmCmCrGrGrGmCmCmCrAmCrArAmCrGmCmUdT*dT; antisense rArGrCrGrUrUrGrUrGrGrGrCrCrCrGrGmCrArGdT*dT)
- Mean percent remaining mRNA transcript at siRNA concentration/in cell type 30 nM/HepG2: 77%

Substance: AD-9697: PCSK9 siRNA (sense rGmCmCrArGrGmUrGmCmUrGmCmCmUrGmCmUrAmCdT*dT; antisense rGmUrArGmCrArGrGmCrArGmCrArCrCrUrGrGrCdT*dT)
- Mean percent remaining mRNA transcript at siRNA concentration/in cell type 3 nM/HepG2: 89%
- Mean percent remaining mRNA transcript at siRNA concentration/in cell type 30 nM/HepG2: 74%

Substance: AD-9698: PCSK9 siRNA (sense mCmCrArGrGmUrGmCmUrGmCmCmUrGmCmUrAmCmCdT*dT; antisense rGrGmUrArGmCrArGrGmCrArGmCrArCrCrUrGrGdT*dT)
- Mean percent remaining mRNA transcript at siRNA concentration/in cell type 30 nM/HepG2: 73%

Substance: AD-9699: PCSK9 siRNA (sense rAmUrGrGmUmCrAmCmCrGrAmCmUmUmCrGrArGrAdT*dT; antisense rUrCrUrCrGrArArGrUrCrGrGrUrGrArCmCrArUdT*dT)
- IC50: 2.5 nM
- Mean percent remaining mRNA transcript at siRNA concentration/in cell type 3 nM/HepG2: 36%
- Mean percent remaining mRNA transcript at siRNA concentration/in cell type 30 nM/HepG2: 32%

Substance: AD-9701: PCSK9 siRNA (sense mCmCrGmCmUrGmCmCrGrGmCrArAmCmUmUmCmCrGdT*dT; antisense rCrGrGrArArGrUrUrGrCrCrGrGmCrArGrCrGrGdT*dT)
- Mean percent remaining mRNA transcript at siRNA concentration/in cell type 30 nM/HepG2: 100%

Substance: AD-9702: PCSK9 siRNA (sense rGmCrArGrArGrAmCmUrGrAmUmCmCrAmCmUmUmCdT*dT; antisense rGrArArGrUrGrGrArUmCrArGrUrCrUrCrUrGrCdT*dT)
- Mean percent remaining mRNA transcript at siRNA concentration/in cell type 30 nM/HepG2: 79%

Substance: AD-9704: PCSK9 siRNA (sense mCrAmUmUmUrAmUmCmUmUmUmUrGrGrGmUmCmUrGdT*dT; antisense mCrArGrArCrCmCrArArArArGrAmUrArArArUrGdT*dT)
- Mean percent remaining mRNA transcript at siRNA concentration/in cell type 30 nM/HepG2: 111%

Substance: AD-9705: PCSK9 siRNA (sense rAmUmCrGrArGrGrArGrGrAmCmUmCmCmUmCmUrGdT*dT; antisense mCrArGrArGrGrArGrUrCrCrUrCrCrUrCrGrArUdT*dT)
- Mean percent remaining mRNA transcript at siRNA concentration/in cell type 30 nM/HepG2: 81%

Substance: AD-9706: PCSK9 siRNA (sense mCmCmUrGmCrGmCrGmUrGmCmUmCrArAmCmUrGmCdT*dT; antisense rGmCrArGrUrUrGrArGmCrArCrGrCrGmCrArGrGdT*dT)
- Mean percent remaining mRNA transcript at siRNA concentration/in cell type 30 nM/HepG2: 86%

Substance: AD-9707: PCSK9 siRNA (sense mUrGmCrGmCrGmUrGmCmUmCrArAmCmUrGmCmCrAdT*dT; antisense rUrGrGmCrArGrUrUrGrArGmCrArCrGrCrGmCrAdT*dT)
- Mean percent remaining mRNA transcript at siRNA concentration/in cell type 30 nM/HepG2: 81%

Substance: AD-9708: PCSK9 siRNA (sense mCmCrArGmCrAmUmCmCrAmCrGmCmUmUmCmCmUrGdT*dT; antisense mCrArGrGrArArGrCrGrUrGrGrArUrGrCrUrGrGdT*dT)
- Mean percent remaining mRNA transcript at siRNA concentration/in cell type 30 nM/HepG2: 81%

Substance: AD-9709: PCSK9 siRNA (sense mCmCmCrAmUrGmUmCrGrAmCmUrAmCrAmUmCrGrAdT*dT; antisense rUrCrGrArUrGmUrArGrUrCrGrAmCrArUrGrGrGdT*dT)
- Mean percent remaining mRNA transcript at siRNA concentration/in cell type 30 nM/HepG2: 104%

Substance: AD-9710: PCSK9 siRNA (sense mCmCmCmUrGrGmCrGrGrGmUrGrGrGmUrAmCrArGdT*dT; antisense rCrUrGmUrArCrCmCrArCrCrCrGrCmCrArGrGrGdT*dT)
- Mean percent remaining mRNA transcript at siRNA concentration/in cell type 30 nM/HepG2: 111%
